From patent US8282968B2, “Bioactive water fraction from Gomphostemma niveum” (The Director General, Defence Research and Development …, priority 2005, dated 2012)

Tested on: P. falciparum
Assay: In vitro evaluation of anti-malarial activity (schizont maturation inhibition)
Assay type: cell-based
Details: Plasmodium falciparum, 24 h
From the text: All the tests are run in duplicates with in 96 well flat bottomed tissue culture plate and double dilutions are made for each of the test compound with individual control wells only with the RPMI 1640 and human serum supplement.

IC90: 46 nM
Compound: CCN(CC)CCCC(C)Nc1ccnc2cc(Cl)ccc12 (stereo not shown) [Chloroquine]
